# According to ChEMBL document CHEMBL4190260, “Antibiofilm potential of 16-oxo-cleroda-3, 13(14) E-diene-15 oic acid and its five new γ-amino γ-lactone derivatives against methicillin resistant Staphylococcus aureus and Streptococcus mutans” (2017):
# Active and inactive are the calls of the source. No cut-off for these calls is given here.
# How the values were obtained:
# Staphylococcus aureus [1] = experiment: Antibacterial activity against methicillin-resistant Staphylococcus aureus ATCC 43300 assessed as log reduction in bacterial count at 5 ug/ml measured after 24 hrs; type: functional
# Staphylococcus aureus [2] = experiment: Antibiofilm activity against methicillin-resistant Staphylococcus aureus ATCC 43300 assessed as formation of broken chains at MBIC concentration by uranyl acetate-staining based electron microscopy; type: functional, organism-based
# Streptococcus mutans [3] = experiment: Antibacterial activity against Streptococcus mutans ATCC 25175 measured assessed as reduction in bacterial viability at 5 to 15 ug/ml after 24 hrs by MTT assay; type: functional
# Streptococcus mutans [4] = experiment: Antibiofilm activity against Streptococcus mutans ATCC 25175 assessed as down-regulation of gtfB gene expression by semi-quantitative PCR analysis; type: functional, organism-based
# Staphylococcus aureus [5] = experiment: Antibiofilm activity against methicillin-resistant Staphylococcus aureus ATCC 43300 assessed as down-regulation of IcaA gene expression by semi-quantitative PCR analysis; type: functional, organism-based
# Streptococcus mutans [6] = experiment: Antibiofilm activity against Streptococcus mutans ATCC 25175 measured after overnight incubation by crystal violet-staining based assay; type: functional
# Streptococcus mutans [7] = experiment: Antibiofilm activity against Streptococcus mutans ATCC 25175 assessed as down-regulation of luxS gene expression by semi-quantitative PCR analysis; type: functional, organism-based
# Staphylococcus aureus [8] = experiment: Potency index, ratio of 6 amino penicillinic acid MIC to test compound MIC for methicillin-resistant Staphylococcus aureus ATCC 43300; type: functional
# Staphylococcus aureus [9] = experiment: Antibacterial activity against methicillin-resistant Staphylococcus aureus ATCC 43300 measured after overnight incubation by two-fold serial dilution method; type: functional
# Streptococcus mutans [10] = experiment: Antibiofilm activity against Streptococcus mutans ATCC 25175 assessed as disruption of biofilm at 10 to 12 ug/ml by fluorescence microscopy; type: functional, organism-based
# Staphylococcus aureus [11] = experiment: Antibacterial activity against methicillin-resistant Staphylococcus aureus ATCC 43300 assessed as inhibition of colony formation at 5 to 20 ug/ml measured after 24 hrs; type: functional, organism-based
# Staphylococcus aureus [12] = experiment: Antibacterial activity against methicillin-resistant Staphylococcus aureus ATCC 43300 assessed as time delay in bacterial growth at 2 times MIC after 10 mins; type: functional
# Streptococcus mutans [13] = experiment: Antibacterial activity against Streptococcus mutans ATCC 25175 assessed as time delay in bacterial growth at MIC, 2 times MIC and 4 times MIC; type: functional
# Streptococcus mutans [14] = experiment: Antibacterial activity against Streptococcus mutans ATCC 25175 assessed as reduction in acid production at 0.5 times MIC and MIC measured up to 24 hrs; type: functional, organism-based
# Streptococcus mutans [15] = experiment: Potency index, ratio of 6 amino penicillinic acid MIC to test compound MIC for Streptococcus mutans ATCC 25175; type: functional
# Staphylococcus aureus [16] = experiment: Bacteriostatic activity against methicillin-resistant Staphylococcus aureus ATCC 43300 assessed as log reduction in colony forming units at 12.5 to 15 ug/ml after 24 hrs; type: functional, organism-based
# Klebsiella pneumoniae [17] = experiment: Antibacterial activity against Klebsiella pneumoniae ATCC 13882 measured after overnight incubation by two-fold serial dilution method; type: functional
# Streptococcus mutans [18] = experiment: Antibacterial activity against Streptococcus mutans ATCC 25175 measured after overnight incubation by two-fold serial dilution method; type: functional
# Staphylococcus aureus [19] = experiment: Antibacterial activity against methicillin-resistant Staphylococcus aureus ATCC 43300 assessed as reduction in acid production at 0.5 times MIC and MIC measured up to 24 hrs; type: functional, organism-based
# Staphylococcus aureus [20] = experiment: Antibacterial activity against methicillin-resistant Staphylococcus aureus ATCC 43300 assessed as reduction in bacterial viability at 5 to 20 ug/ml measured after 24 hrs by MTT assay; type: functional
# Staphylococcus aureus [21] = experiment: Antibiofilm activity against methicillin-resistant Staphylococcus aureus ATCC 43300 measured after overnight incubation by crystal violet-staining based assay; type: functional
# Staphylococcus aureus [22] = experiment: Antibiofilm activity against methicillin-resistant Staphylococcus aureus ATCC 43300 assessed as formation of oviod cells at MBIC concentration by uranyl acetate-staining based electron microscopy; type: functional, organism-based
# Streptococcus mutans [23] = experiment: Potency index, ratio of cefixime MIC to test compound MIC for Streptococcus mutans ATCC 25175; type: functional
# Staphylococcus aureus [24] = experiment: Potency index, ratio of gentamycin sulphate MIC to test compound MIC for methicillin-resistant Staphylococcus aureus ATCC 43300; type: functional
# Streptococcus mutans [25] = experiment: Bactericidal activity against Streptococcus mutans ATCC 25175 measured after overnight incubation; type: functional
# Streptococcus mutans [26] = experiment: Bacteriostatic activity against Streptococcus mutans ATCC 25175 assessed as log reduction in colony forming units at 7.5 to 10 ug/ml after 24 hrs; type: functional, organism-based
# Staphylococcus aureus [27] = experiment: Antibacterial activity against methicillin-resistant Staphylococcus aureus ATCC 43300 assessed as time delay in bacterial growth at MIC after 10 mins; type: functional
# Streptococcus mutans [28] = experiment: Antibacterial activity against Streptococcus mutans ATCC 25175 assessed as log reduction in bacterial count at 10 ug/ml measured after 24 hrs relative to control; type: functional
# Staphylococcus aureus [29] = experiment: Bactericidal activity against methicillin-resistant Staphylococcus aureus ATCC 43300 measured after overnight incubation; type: functional
# Staphylococcus aureus [30] = experiment: Antibacterial activity against methicillin-resistant Staphylococcus aureus ATCC 43300 assessed as delay in bacterial growth at 4 times MIC after 10 mins; type: functional, organism-based
# Streptococcus mutans [31] = experiment: Antibacterial activity against Streptococcus mutans ATCC 25175 measured assessed as inhibition of colony formation at 5 to 15 ug/ml after 24 hrs; type: functional, organism-based
# Staphylococcus aureus [32] = experiment: Potency index, ratio of cefixime MIC to test compound MIC for methicillin-resistant Staphylococcus aureus ATCC 43300; type: functional
# Streptococcus mutans [33] = experiment: Antibiofilm activity against Streptococcus mutans ATCC 25175 assessed as down-regulation of gtfC gene expression by semi-quantitative PCR analysis; type: functional, organism-based
# Staphylococcus aureus [34] = experiment: Antibiofilm activity against methicillin-resistant Staphylococcus aureus ATCC 43300 assessed as disruption of biofilm at 10 to 12 ug/ml by fluorescence microscopy; type: functional, organism-based
# Klebsiella pneumoniae [35] = experiment: Antibiofilm activity against Klebsiella pneumoniae ATCC 13882 at >= 50 ug/ml measured after overnight incubation by crystal violet-staining based assay; type: functional, organism-based
# Proteus mirabilis [36] = experiment: Antibiofilm activity against Proteus mirabilis ATCC 12453 at >= 50 ug/ml measured after overnight incubation by crystal violet-staining based assay; type: functional, organism-based
# Proteus mirabilis [37] = experiment: Antibacterial activity against Proteus mirabilis ATCC 12453 measured after overnight incubation by two-fold serial dilution method; type: functional
# Proteus mirabilis [38] = experiment: Antibiofilm activity against Proteus mirabilis ATCC 12453 measured after overnight incubation by crystal violet-staining based assay; type: functional
# Klebsiella pneumoniae [39] = experiment: Antibiofilm activity against Klebsiella pneumoniae ATCC 13882 measured after overnight incubation by crystal violet-staining based assay; type: functional
compound,measurement,setting,value
CC1=CCC[C@@H]2[C@@](C)(CCC3=CC(=O)OC3Nc3ccccc3)[C@H](C)CC[C@@]12C (mixture of isomers),Activity,Staphylococcus aureus [1],9.5 log10CFU/ml
same,Activity,Staphylococcus aureus [2],Active
same,Activity,Streptococcus mutans [3],<=90%
same,Activity,Streptococcus mutans [4],Active
same,Activity,Staphylococcus aureus [5],inactive
same,Activity,Streptococcus mutans [6],95.88%
same,MBIC,Streptococcus mutans [6],15 µg/mL
same,Activity,Streptococcus mutans [7],Active
same,Ratio,Staphylococcus aureus [8],5
same,MIC,Staphylococcus aureus [9],10 µg/mL
same,Activity,Streptococcus mutans [10],Active
same,Activity,Staphylococcus aureus [11],Active
same,Time,Staphylococcus aureus [12],1 to 2 h
same,Time,Streptococcus mutans [13],>=8 hr
same,Activity,Streptococcus mutans [14],Active
same,Ratio,Streptococcus mutans [15],5
same,Activity,Staphylococcus aureus [16],Active
same,MIC,Klebsiella pneumoniae [17],inactive
same,MIC,Streptococcus mutans [18],15 µg/mL
same,Activity,Staphylococcus aureus [19],Active
same,Activity,Staphylococcus aureus [20],<=90%
same,Activity,Staphylococcus aureus [21],96.9%
same,MBIC,Staphylococcus aureus [21],10 µg/mL
same,Activity,Staphylococcus aureus [22],Active
same,Ratio,Streptococcus mutans [23],5
same,Ratio,Staphylococcus aureus [24],5
same,MBC,Streptococcus mutans [25],inactive
same,Activity,Streptococcus mutans [26],Active
same,Time,Staphylococcus aureus [27],1 to 2 h
same,Activity,Streptococcus mutans [28],7.5 - 8 log10CFU/ml
same,MBC,Staphylococcus aureus [29],inactive
same,Activity,Staphylococcus aureus [30],Active
same,Activity,Streptococcus mutans [31],Active
same,Ratio,Staphylococcus aureus [32],5
same,Activity,Streptococcus mutans [33],Active
same,Activity,Staphylococcus aureus [34],Active
CC1=CCC[C@@H]2[C@@](C)(CCC3=CC(=O)OC3Nc3ccccc3F)[C@H](C)CC[C@@]12C (mixture of isomers),Activity,Streptococcus mutans [6],69.05%
same,MBIC,Streptococcus mutans [6],45 µg/mL
same,MIC,Staphylococcus aureus [9],45 µg/mL
same,MIC,Klebsiella pneumoniae [17],inactive
same,MIC,Streptococcus mutans [18],50 µg/mL
same,Activity,Klebsiella pneumoniae [35],Active
same,Activity,Staphylococcus aureus [21],76.25%
same,Activity,Proteus mirabilis [36],Active
same,MIC,Proteus mirabilis [37],125 µg/mL
same,Activity,Proteus mirabilis [38],62.5%
same,MBIC,Proteus mirabilis [38],90 µg/mL
CC1=CCC[C@@H]2[C@@](C)(CCC3=CC(=O)OC3Nc3ccc(-c4ccc(NC5OC(=O)C=C5CC[C@@]5(C)[C@H](C)CC[C@@]6(C)C(C)=CCC[C@H]56)c(C)c4)cc3C)[C@H](C)CC[C@@]12C (mixture of isomers),MIC,Streptococcus mutans [18],inactive
CC1=CCC[C@@H]2[C@@](C)(CCC3=CC(=O)OC3Nc3ccc(F)cc3)[C@H](C)CC[C@@]12C (mixture of isomers),MIC,Streptococcus mutans [18],inactive
C=CC1=C(C(=O)O)N2C(=O)[C@@H](NC(=O)/C(=N\OCC(=O)O)c3csc(N)n3)[C@H]2SC1 [CEFIXIME],Activity,Streptococcus mutans [6],96.06%
same,MBIC,Streptococcus mutans [6],40 µg/mL
same,MIC,Staphylococcus aureus [9],82 µg/mL
same,MIC,Klebsiella pneumoniae [17],40 µg/mL
same,MIC,Streptococcus mutans [18],40 µg/mL
same,Activity,Staphylococcus aureus [21],73.5%
same,MBIC,Staphylococcus aureus [21],82 µg/mL
same,Activity,Klebsiella pneumoniae [39],94.78%
same,MBIC,Klebsiella pneumoniae [39],40 µg/mL
same,MIC,Proteus mirabilis [37],40 µg/mL
same,Activity,Proteus mirabilis [38],72.6%
same,MBIC,Proteus mirabilis [38],40 µg/mL
